Results taken from patent publication US4272437A, “Antibacterial agents, and 4-thio azetidinone intermediates” (priority 1979, dated 1981).
Converted amounts (≈) assume the structure as drawn. Like-named read-outs stand apart in the source and are kept apart here.

Legend:
Str. pneumoniae A-9585 = test: MIC, tube dilution, Streptococcus pneumoniae A9585; assay type: cell-based; conditions: overnight 37° C., Nutrient Broth; for MIC: Streptococcus pneumoniae, A9585, Str. pneumoniae A9585, read-out: Minimum Inhibitory Concentration (M.I.C.)
Description: (§1) Representative compounds of the present invention were subjected to in vitro antibiotic screening against a variety of microorganisms.

Str. pyogenes A-9604 = test: MIC, tube dilution, Streptococcus pyogenes A9604; assay type: cell-based; conditions: overnight 37° C., Nutrient Broth; for MIC: Streptococcus pyogenes, A9604, Str. pyogenes A9604, read-out: Minimum Inhibitory Concentration (M.I.C.)
Description: as §1

Ent. cloacae A-9656 = test: MIC, tube dilution, Enterobacter cloacae A9656; assay type: cell-based; conditions: overnight 37° C.; for MIC: read-out: Minimum Inhibitory Concentration (M.I.C.)
Description: as §1

[1] = system: Staph. aureus A-9537 and 50% serum; test: MIC, tube dilution, Staph. aureus A9537 + 50% serum; assay type: cell-based, Staphylococcus aureus; conditions: overnight 37° C.; for MIC: Staphylococcus aureus, read-out: Minimum Inhibitory Concentration (M.I.C.)
Description: as §1

Staph. aureus A-9537 = test: MIC, tube dilution, Staphylococcus aureus A9537; assay type: cell-based; conditions: overnight 37° C., Nutrient Broth; for MIC: Staphylococcus aureus, A9537, Staph. aureus A9537, read-out: Minimum Inhibitory Concentration (M.I.C.)
Description: as §1

[2] = system: Providencia stuartii A21205; test: MIC, tube dilution, Providencia stuartii (Pr. rettgeri) A21205; assay type: cell-based; conditions: Providencia stuartii, A21205, read-out: Minimum Inhibitory Concentration (M.I.C.)
Description: as §1

[3] = system: Klebsiella species A20468; test: MIC, tube dilution, Klebsiella species A20468; assay type: cell-based; conditions: Klebsiella species (K. pneumoniae) A20468, overnight 37° C.; for MIC: read-out: Minimum Inhibitory Concentration (M.I.C.)
Description: as §1

E. coli A-20341-1 = test: MIC, tube dilution, Escherichia coli A20341-1; assay type: cell-based
Description: as §1

[4] = system: Staph. aureus (Meth-Res) A-15097; test: MIC, tube dilution, Staphylococcus aureus A15097 (Meth-Res); assay type: cell-based; conditions: Staph. aureus A15097 (Meth-Res), overnight 37° C.
Description: as §1

Ps. aeruginosa A-21213 = test: MIC, tube dilution, Pseudomonas aeruginosa A21213; assay type: cell-based; conditions: overnight 37° C., read-out: Minimum Inhibitory Concentration (M.I.C.)
Description: as §1

[5] = system: Staph. aureus (Pen-Res) A-9606; test: MIC, tube dilution, Staphylococcus aureus A9606 (Pen-Res); assay type: cell-based; conditions: Staphylococcus aureus, Staph. aureus A9606 (Pen-Res); overnight 37° C.; read-out: Minimum Inhibitory Concentration (M.I.C.)
Description: as §1

Ps. aeruginosa A-9843A = test: MIC, tube dilution, Pseudomonas aeruginosa A9843A; assay type: cell-based; conditions: overnight 37° C.; for MIC: Pseudomonas aeruginosa, A9843A, read-out: Minimum Inhibitory Concentration (M.I.C.), Pseudomonas aeruginosa A9843A
Description: as §1

Str. faecalis A-20688 = test: MIC, tube dilution, Streptococcus faecalis A20688; assay type: cell-based; conditions: overnight 37° C.; for MIC: Enterococcus faecalis, A20688, Str. faecalis A20688, read-out: Minimum Inhibitory Concentration (M.I.C.)
Description: as §1

Ent. cloacae A-9659 = test: MIC, tube dilution, Enterobacter cloacae A9659; assay type: cell-based; conditions: overnight 37° C.; for MIC: Enterobacter cloacae, A9659, Enterobacter cloacae A9659, read-out: Minimum Inhibitory Concentration (M.I.C.)
Description: as §1

Pr. mirabilis A-9900 = test: MIC, tube dilution, Proteus mirabilis A9900; assay type: cell-based; conditions: Proteus mirabilis, A9900, Proteus mirabilis A9900; overnight 37° C.; read-out: Minimum Inhibitory Concentration (M.I.C.)
Description: as §1

Ser. marcescens A-20019 = test: MIC, tube dilution, Serratia marcescens A20019; assay type: cell-based; conditions: Serratia marcescens, A20019, Serratia marcescens A20019; overnight 37° C.; read-out: Minimum Inhibitory Concentration (M.I.C.)
Description: as §1

Pr. morganii A-15153 = test: MIC, tube dilution, Proteus morganii A15153; assay type: cell-based; conditions: Morganella morganii, A15153, Proteus morganii A15153; overnight 37° C.; read-out: Minimum Inhibitory Concentration (M.I.C.)
Description: as §1

E. coli A-15119 = test: MIC, tube dilution, Escherichia coli A15119; assay type: cell-based; conditions: overnight 37° C.; for MIC: Escherichia coli, A15119, E. coli A15119, read-out: Minimum Inhibitory Concentration (M.I.C.)
Description: as §1

S. aureus A9537 = test: In vivo protection of mice, lethal infection with S. aureus A9537; conditions: Staphylococcus aureus, A9537, im, IM, 2 treatments, read-out: PD50
Protocol: Representative compounds of the present invention were also tested in vivo in mice and their PD50 (dose of compound in mg/kg required to protect 50% of the treated mice against an otherwise lethal infection of a micro-organism) values determined with respect to the test organisms shown below.

[6] = Mouse blood levels after intramuscular administration; assay type: in vivo; conditions: average of 6 mice, read-out: Mouse blood level; for concentration at 10 min: 10 minutes after IM 40 mg/kg; for concentration at 20 min: 20 minutes after IM 40 mg/kg; for concentration at 0.5 h: 30 minutes after IM 40 mg/kg; for concentration at 0.75 h: 45 minutes after IM 40 mg/kg; for concentration at 1 h: 60 minutes after IM 40 mg/kg; for concentration at 1.5 h: 90 minutes after IM 40 mg/kg; for concentration at 2 h: 120 minutes after IM 40 mg/kg
Protocol: Mouse blood levels after intramuscular administration of representative compounds of the present invention were determined and are reported in the table below.

Proteus rettgeri A21203 = test: MIC, tube dilution, Proteus rettgeri A21203; assay type: cell-based; conditions: Providencia rettgeri, A21203, Proteus rettgeri A21203; overnight 37° C.; read-out: Minimum Inhibitory Concentration (M.I.C.)
Description: as §1

Proteus vulgaris A21559 = test: MIC, tube dilution, Proteus vulgaris A21559; assay type: cell-based; conditions: Proteus vulgaris, A21559, Proteus vulgaris A21559; overnight 37° C.; read-out: Minimum Inhibitory Concentration (M.I.C.)
Description: as §1

K. pneumoniae A-15130 = test: MIC, tube dilution, Klebsiella pneumoniae A15130; assay type: cell-based; conditions: overnight 37° C.; for MIC: Klebsiella pneumoniae, A15130, K. pneumoniae A15130, read-out: Minimum Inhibitory Concentration (M.I.C.)
Description: as §1

Pr. vulgaris A-9716 = test: MIC, tube dilution, Proteus vulgaris / Proteus mirabilis A9716; assay type: cell-based, Proteus vulgaris (name changed to Proteus mirabilis); conditions: Proteus vulgaris, A9716, Proteus vulgaris / Proteus mirabilis A9716; overnight 37° C.; read-out: Minimum Inhibitory Concentration (M.I.C.)
Description: as §1

[7] = Escherichia coli, A203411; E. coli A20341-1; overnight 37° C.; read-out: Minimum Inhibitory Concentration (M.I.C.)
[8] = Pseudomonas aeruginosa, A21213, Pseudomonas aeruginosa A21213
[9] = Enterobacter cloacae, A9656, Enterobacter cloacae A9656
[10] = Escherichia coli, A203411, E. coli A20341-1; overnight 37° C.; read-out: Minimum Inhibitory Concentration (M.I.C.)

Compound | MIC (E. coli A-20341-1; [7]) | MIC (Ps. aeruginosa A-21213; [8]) | MIC (Str. pneumoniae A-9585) | MIC (Str. pyogenes A-9604) | MIC [5] | MIC (Ent. cloacae A-9656; [9]) | MIC [1] | MIC (Ps. aeruginosa A-9843A) | MIC (Str. faecalis A-20688) | MIC (Ent. cloacae A-9659) | MIC (Staph. aureus A-9537) | MIC (Pr. mirabilis A-9900) | MIC (Ser. marcescens A-20019) | MIC [3] | MIC (Pr. morganii A-15153) | concentration at 10 min [6] | concentration at 20 min [6] | concentration at 0.5 h [6] | concentration at 0.75 h [6] | MIC (Proteus rettgeri A21203) | also measured
CC1=C(C(=O)O)N2C(=O)C[C@H]2S1 [Preparation 4(-), (-)-2-Methylpenem-3-carboxylic Acid] | > 125 µg/mL |  |  |  |  |  |  |  |  |  |  |  |  |  |  |  |  |  |  |  | Minimum Inhibitory Concentration (M.I.C.) (Str. pneumoniae A-9585; Str. pneumoniae A9585): 8 µg/mL; Minimum Inhibitory Concentration (M.I.C.) (Str. pyogenes A-9604; Str. pyogenes A9604): 8 µg/mL; MIC (Ent. cloacae A-9656; Enterobacter cloacae A9656): > 125 µg/mL; Minimum Inhibitory Concentration (M.I.C.) [1]: > 63 µg/mL; Minimum Inhibitory Concentration (M.I.C.) (Staph. aureus A-9537; Staph. aureus A9537): 32 µg/mL; MIC [2]: > 125 µg/mL; Minimum Inhibitory Concentration (M.I.C.) [3]: > 125 µg/mL
NCCOCC1=C(C(=O)O)N2C(=O)CC2S1 (centres unmarked) [Example 86, 2-(2-Aminoethoxymethyl)penem-3-carboxylic Acid] |  | 125 µg/mL (≈ 512 µM) | 0.13 µg/mL (≈ 0.532 µM) | 0.13 µg/mL (≈ 0.532 µM) | 32 µg/mL (≈ 131 µM) | 4 µg/mL (≈ 16.4 µM) | 1 µg/mL | 63 µg/mL (≈ 258 µM) | 32 µg/mL (≈ 131 µM) | 8 µg/mL (≈ 32.8 µM) | 0.13 µg/mL (≈ 0.532 µM) | 2 µg/mL (≈ 8.19 µM) | 2 µg/mL (≈ 8.19 µM) | > 125 µg/mL | 8 µg/mL (≈ 32.8 µM) | 36000 ng/mL | 26300 ng/mL | 16500 ng/mL | 7500 ng/mL | 2 µg/mL (≈ 8.19 µM) | MIC ([4]; Staphylococcus aureus, read-out: Minimum Inhibitory Concentration (M.I.C.)): 125 µg/mL (≈ 512 µM); MIC (E. coli A-15119): 2 µg/mL (≈ 8.19 µM); MIC (E. coli A-20341-1; [10]): 8 µg/mL (≈ 32.8 µM); ED50 (S. aureus A9537; 1 × 10^6 organisms): 1.9 mg/kg; concentration at 1 h [6]: 4000 ng/mL; concentration at 1.5 h [6]: < 3100 ng/mL; concentration at 2 h [6]: < 3100 ng/mL; MIC (Proteus vulgaris A21559): 8 µg/mL (≈ 32.8 µM); MIC (K. pneumoniae A-15130): 4 µg/mL (≈ 16.4 µM)
NCCCC1=C(C(=O)O)N2C(=O)CC2S1 (centres unmarked) [Example 22, Sodium 2-Aminopropylpenem-3-carboxylate] | 125 µg/mL |  | 0.25 µg/mL | 2 µg/mL | 63 µg/mL | 32 µg/mL | 63 µg/mL | 125 µg/mL |  | 16 µg/mL | 2 µg/mL | 16 µg/mL | 32 µg/mL | > 125 µg/mL | 32 µg/mL | 36500 ng/mL | 39900 ng/mL | 31500 ng/mL | 16500 ng/mL | 16 µg/mL | Minimum Inhibitory Concentration (M.I.C.) [4]: 125 µg/mL; MIC (Pr. vulgaris A-9716): 16 µg/mL; MIC (Ps. aeruginosa A-21213; Pseudomonas aeruginosa A21213): 125 µg/mL; Minimum Inhibitory Concentration (M.I.C.) (Str. faecalis A-20688; Str. faecalis A20688): 125 µg/mL; MIC (E. coli A-15119): 16 µg/mL; ED50 (S. aureus A9537; 1.1 × 10^6 organisms): 0.63 mg/kg; concentration at 1 h [6]: 11500 ng/mL; concentration at 1.5 h [6]: 5700 ng/mL; concentration at 2 h [6]: 3100 ng/mL; MIC (K. pneumoniae A-15130): 32 µg/mL
NCCCCCC1=C(C(=O)O)N2C(=O)C[C@H]2S1 [Example 87, 2-(5-Aminopentyl)-penem-3-carboxylic acid] |  | > 125 µg/mL | 0.008 µg/mL (≈ 0.0312 µM) | 0.008 µg/mL (≈ 0.0312 µM) | 4 µg/mL (≈ 15.6 µM) |  | 0.13 µg/mL |  | 8 µg/mL (≈ 31.2 µM) |  | 0.016 µg/mL (≈ 0.0624 µM) | 4 µg/mL (≈ 15.6 µM) | 2 µg/mL (≈ 7.8 µM) | > 125 µg/mL | 4 µg/mL (≈ 15.6 µM) | 50300 ng/mL | 47300 ng/mL | 34600 ng/mL | 23300 ng/mL | 4 µg/mL (≈ 15.6 µM) | Minimum Inhibitory Concentration (M.I.C.) [4]: 32 µg/mL; Minimum Inhibitory Concentration (M.I.C.) (Ent. cloacae A-9656; Enterobacter cloacae A9656): 8 µg/mL; Minimum Inhibitory Concentration (M.I.C.) (Ps. aeruginosa A-9843A; Pseudomonas aeruginosa A9843A): 32 µg/mL; Minimum Inhibitory Concentration (M.I.C.) (Ent. cloacae A-9659; Enterobacter cloacae A9659): 16 µg/mL; Minimum Inhibitory Concentration (M.I.C.) (E. coli A-15119; E. coli A15119): 4 µg/mL; MIC (E. coli A-20341-1; [10]): 16 µg/mL (≈ 62.4 µM); ED50 (S. aureus A9537; 1 × 10^6 organisms): 0.12 mg/kg; MIC (Proteus vulgaris A21559): 16 µg/mL (≈ 62.4 µM); Minimum Inhibitory Concentration (M.I.C.) (K. pneumoniae A-15130; K. pneumoniae A15130): 8 µg/mL
